Test results reported in the supplement of paper PMC11208160.
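Note: IS621 bridge recombinase in Escherichia coli cells against a fixed T5 target plasmid.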

Experiment: recombinant UMI read abundance after kanamycin selection (control-corrected) (log10(CPM+1)); higher = more efficient recombination; extreme values may be limits of the assay; sequences stand for … in AGTGCAGAGAAAATCGGCCAGTTTTCTCTGCCTGCAGTCCGCATGCCGTGGGACCCCTTGGGTTCTAACCTGTTGCCTAGATTTATGCAGCGGACTGCCTTTCTCCCAAAGTGATAAACCGG…AGGTTGGTTTCACT; site = the 11-nt donor
Method in brief: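 Sequencing read counts were converted to CPM, averaged over two replicates and scaled by control-derived factors. Results are given as log10(CPM+1). The reads covered the donor–target junction of recombinant UMIs from a pooled Escherichia coli screen of donor and donor-binding-loop pairs for the IS621 bridge recombinase.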
For “GGGAATCCATGGACCGGTTTTCCCGGTAATCCGTATTTGTC (site GGGAATCCTGA)”, the “recombinant UMI read abundance (log10)” value was 0. In the case of “GGGACAACATGGACCGGTTTTCCCGGTAATCCGTATTTGTG (site GGGACAACTCA)”, the “recombinant UMI read abundance (log10)” value was 0.439. With “GGGACATCATGGACCGGTTTTCCCGGTAATCCGTATTTGGA (site GGGACATCTTC)” the “recombinant UMI read abundance (log10)” value was 1.52. In the case of “GGGACGTCATGGACCGGTTTTCCCGGTAATCCGTATTTGTG (site GGGACGTCTCA)”, the “recombinant UMI read abundance (log10)” value was 2.05. With “GGGCAATCATGGACCGGTTTTCCCGGTAATCCGTATTTGTC (site GGGCAATCTGA)” the “recombinant UMI read abundance (log10)” value was 2.8. With “GGGCAATCATGGACCGGTTTTCCCGGTAATCCGTATTTGTG (site GGGCAATCTCA)” the “recombinant UMI read abundance (log10)” value was 1.92. With “GGGCATGCATGGACCGGTTTTCCCGGTAATCCGTATTTGAG (site GGGCATGCTCT)” the “recombinant UMI read abundance (log10)” value was 1.57. In the case of “GGGCATGCATGGACCGGTTTTCCCGGTAATCCGTATTTGGT (site GAGCATGCTAC)”, the “recombinant UMI read abundance (log10)” value was 0.336. For “GGGCATGCATGGACCGGTTTTCCCGGTAATCCGTATTTGGT (site GCGCATGCTAC)”, the “recombinant UMI read abundance (log10)” value was 0.0126. For “GGGCATGCATGGACCGGTTTTCCCGGTAATCCGTATTTGGT (site GGGCATGCTAC)”, the “recombinant UMI read abundance (log10)” value was 1.33. For “GGGCATGCATGGACCGGTTTTCCCGGTAATCCGTATTTGGT (site GTGCATGCTAC)”, the “recombinant UMI read abundance (log10)” value was 0.161. In the case of “GGGCCAACATGGACCGGTTTTCCCGGTAATCCGTATTTGTG (site GGGCCAACTCA)”, the “recombinant UMI read abundance (log10)” value was 0. With “GGGCCACCATGGACCGGTTTTCCCGGTAATCCGTATTTGCA (site GGGACACCTTG)” the “recombinant UMI read abundance (log10)” value was 0. With “GGGCCACCATGGACCGGTTTTCCCGGTAATCCGTATTTGCA (site GGGCCACCTTG)” the “recombinant UMI read abundance (log10)” value was 0. In the case of “GGGCCACCATGGACCGGTTTTCCCGGTAATCCGTATTTGCA (site GGGGCACCTTG)”, the “recombinant UMI read abundance (log10)” value was 0. With “GGGCCACCATGGACCGGTTTTCCCGGTAATCCGTATTTGCA (site GGGTCACCTTG)” the “recombinant UMI read abundance (log10)” value was 0.00812. In the case of “GGGCCTACATGGACCGGTTTTCCCGGTAATCCGTATTTGCT (site GGGCCTACTAG)”, the “recombinant UMI read abundance (log10)” value was 1.86. With “GGGCCTGCATGGACCGGTTTTCCCGGTAATCCGTATTTGTG (site GGGCCTGCTCA)” the “recombinant UMI read abundance (log10)” value was 0.38. For “GGGCGAACATGGACCGGTTTTCCCGGTAATCCGTATTTGGA (site GGGCGAACTTC)”, the “recombinant UMI read abundance (log10)” value was 0.799. In the case of “GGGCGTCCATGGACCGGTTTTCCCGGTAATCCGTATTTGCA (site GGGCGTCCTTG)”, the “recombinant UMI read abundance (log10)” value was 2.59. In the case of “GGGCGTCCATGGACCGGTTTTCCCGGTAATCCGTATTTGGT (site GGGCGTCCTAC)”, the “recombinant UMI read abundance (log10)” value was 0. With “GGGCTTGCATGGACCGGTTTTCCCGGTAATCCGTATTTGGA (site GGGCTTGCTTC)” the “recombinant UMI read abundance (log10)” value was 0.564. For “GGGGAATCATGGACCGGTTTTCCCGGTAATCCGTATTTGGT (site GGGGAATCTAC)”, the “recombinant UMI read abundance (log10)” value was 0.628. For “GGGGAGGCATGGACCGGTTTTCCCGGTAATCCGTATTTGTG (site GAGGAGGCTCA)”, the “recombinant UMI read abundance (log10)” value was 0. For “GGGGAGGCATGGACCGGTTTTCCCGGTAATCCGTATTTGTG (site GCGGAGGCTCA)”, the “recombinant UMI read abundance (log10)” value was 0.00803. For “GGGGAGGCATGGACCGGTTTTCCCGGTAATCCGTATTTGTG (site GGGGAGGCTCA)”, the “recombinant UMI read abundance (log10)” value was 0.851. With “GGGGAGGCATGGACCGGTTTTCCCGGTAATCCGTATTTGTG (site GTGGAGGCTCA)” the “recombinant UMI read abundance (log10)” value was 0.134. In the case of “GGGGAGTCATGGACCGGTTTTCCCGGTAATCCGTATTTGCC (site AGGGAGTCTGG)”, the “recombinant UMI read abundance (log10)” value was 1.14. With “GGGGAGTCATGGACCGGTTTTCCCGGTAATCCGTATTTGCC (site CGGGAGTCTGG)” the “recombinant UMI read abundance (log10)” value was 0. In the case of “GGGGAGTCATGGACCGGTTTTCCCGGTAATCCGTATTTGCC (site GGGGAGTCTGG)”, the “recombinant UMI read abundance (log10)” value was 1.78. With “GGGGAGTCATGGACCGGTTTTCCCGGTAATCCGTATTTGCC (site TGGGAGTCTGG)” the “recombinant UMI read abundance (log10)” value was 1.02. With “GGGGCACCATGGACCGGTTTTCCCGGTAATCCGTATTTGCG (site GGGGCACCTAG)” the “recombinant UMI read abundance (log10)” value was 0.0129. With “GGGGCACCATGGACCGGTTTTCCCGGTAATCCGTATTTGCG (site GGGGCACCTCG)” the “recombinant UMI read abundance (log10)” value was 0.0566. For “GGGGCACCATGGACCGGTTTTCCCGGTAATCCGTATTTGCG (site GGGGCACCTGG)”, the “recombinant UMI read abundance (log10)” value was 0. In the case of “GGGGCACCATGGACCGGTTTTCCCGGTAATCCGTATTTGCG (site GGGGCACCTTG)”, the “recombinant UMI read abundance (log10)” value was 0. With “GGGGCACCATGGACCGGTTTTCCCGGTAATCCGTATTTGCT (site GGGGCACCTAG)” the “recombinant UMI read abundance (log10)” value was 0. For “GGGGCACCATGGACCGGTTTTCCCGGTAATCCGTATTTGCT (site GGGGCACCTCG)”, the “recombinant UMI read abundance (log10)” value was 0.0126. For “GGGGCACCATGGACCGGTTTTCCCGGTAATCCGTATTTGCT (site GGGGCACCTGG)”, the “recombinant UMI read abundance (log10)” value was 0. With “GGGGCACCATGGACCGGTTTTCCCGGTAATCCGTATTTGCT (site GGGGCACCTTG)” the “recombinant UMI read abundance (log10)” value was 0. For “GGGGCACCATGGACCGGTTTTCCCGGTAATCCGTATTTGGA (site GGGGCACCTTA)”, the “recombinant UMI read abundance (log10)” value was 0. For “GGGGCACCATGGACCGGTTTTCCCGGTAATCCGTATTTGGA (site GGGGCACCTTC)”, the “recombinant UMI read abundance (log10)” value was 0.0209. With “GGGGCACCATGGACCGGTTTTCCCGGTAATCCGTATTTGGA (site GGGGCACCTTG)” the “recombinant UMI read abundance (log10)” value was 0. For “GGGGCACCATGGACCGGTTTTCCCGGTAATCCGTATTTGGA (site GGGGCACCTTT)”, the “recombinant UMI read abundance (log10)” value was 0.0158. For “GGGGCATCATGGACCGGTTTTCCCGGTAATCCGTATTTGCA (site GGGGCAACTTG)”, the “recombinant UMI read abundance (log10)” value was 0. In the case of “GGGGCATCATGGACCGGTTTTCCCGGTAATCCGTATTTGCA (site GGGGCACCTTG)”, the “recombinant UMI read abundance (log10)” value was 0. For “GGGGCATCATGGACCGGTTTTCCCGGTAATCCGTATTTGCA (site GGGGCAGCTTG)”, the “recombinant UMI read abundance (log10)” value was 0. For “GGGGCATCATGGACCGGTTTTCCCGGTAATCCGTATTTGCA (site GGGGCATCTTG)”, the “recombinant UMI read abundance (log10)” value was 2.13. For “GGGGTTCCATGGACCGGTTTTCCCGGTAATCCGTATTTGAA (site GGGGTTCCTTT)”, the “recombinant UMI read abundance (log10)” value was 0. In the case of “GGGTACTCATGGACCGGTTTTCCCGGTAATCCGTATTTGCT (site GGGTACTCTAG)”, the “recombinant UMI read abundance (log10)” value was 3.34. In the case of “GGGTTCCCATGGACCGGTTTTCCCGGTAATCCGTATTTGTG (site AGGTTCCCTCA)”, the “recombinant UMI read abundance (log10)” value was 0.00854. With “GGGTTCCCATGGACCGGTTTTCCCGGTAATCCGTATTTGTG (site CGGTTCCCTCA)” the “recombinant UMI read abundance (log10)” value was 0.0144. With “GGGTTCCCATGGACCGGTTTTCCCGGTAATCCGTATTTGTG (site GGGTTCCCTCA)” the “recombinant UMI read abundance (log10)” value was 0.00899. With “GGGTTCCCATGGACCGGTTTTCCCGGTAATCCGTATTTGTG (site TGGTTCCCTCA)” the “recombinant UMI read abundance (log10)” value was 0.0194. For “GGTAAACCATGGACCGGTTTTCCCGGTAATCCGTATTTGAT (site GGTAAACCTAT)”, the “recombinant UMI read abundance (log10)” value was 0. For “GGTAAGCCATGGACCGGTTTTCCCGGTAATCCGTATTTGGG (site GGTAAGCCTCC)”, the “recombinant UMI read abundance (log10)” value was 0.023. With “GGTACAACATGGACCGGTTTTCCCGGTAATCCGTATTTGTA (site GGTACAACTTA)” the “recombinant UMI read abundance (log10)” value was 0.0152. In the case of “GGTACAACATGGACCGGTTTTCCCGGTAATCCGTATTTGTA (site GGTCCAACTTA)”, the “recombinant UMI read abundance (log10)” value was 0.00335.
